The assay relates to Methicillin-resistant Staphylococcus aureus (MRSA). Briefly: antimicrobial properties against MRSA (log killing). The format is cell-based. To be noted: high dose (100 μg/ml). The protocol: FIG. 2 compares the antimicrobial properties of chitosan and hydrophobically modified chitosan, alongside ampicillin, against Methicillin-resistant Staphylococcus aureus (MRSA). Hm-chitosan at 0.5 wt % achieves a log killing of >2, whereas native chitosan (0.5 wt %) achieves a log killing of ˜1. In contrast, ampicillin at high dose (100 μg/ml) achieves only ˜0.5 log killing.

On to `CC1(C)S[C@@H]2[C@H](NC(=O)[C@H](N)c3ccccc3)C(=O)N2[C@H]1C(=O)O` [ampicillin], for which the log killing is listed as approximately 0.5 log.

Source of the values: patent publication US20200046870A1, “MATERIALS COMPRISING HYDROPHOBICALLY-MODIFIED BIOPOLYMER” (GEL-E LIFE SCIENCES, priority 2016, published 2020).
